Laboratory results as given in PubChem BioAssay AID2060623 (Molecular Pharmacology Branch, DTP, NCI, 2025).

Test system: 227483-062-R1-J1-PDC complex spheroids with HUVEC/MSC, viability
Assay: Anticancer human tumor 227483-062-R1-J1-PDC patient-derived pancreatic carcinoma cell line growth inhibition [CLK]
Conditions: for IC50: curve of first compound; for viability, T/C: stronger effect = lower value
Procedure, shortened: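 Patient-derived tumor cells grown as complex spheroids with HUVEC endothelial cells and mesenchymal stem cells, treated with drug combinations. Concentrations descend in half-log steps from near clinical Cmax, or from 10 microM if Cmax unknown.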

[1] = second compound 0.0316 µM, first compound 0.0316 µM
[2] = second compound 0.0316 µM, first compound 0.1 µM
[3] = second compound 0.0316 µM, first compound 0.316 µM
[4] = second compound 0.0316 µM, first compound 1 µM
[5] = second compound 0.0316 µM, first compound 3.16 µM
[6] = second compound 0.0316 µM, first compound 10 µM
[7] = second compound 0.1 µM, first compound 0.0316 µM
[8] = second compound 0.1 µM, first compound 0.1 µM
[9] = second compound 0.1 µM, first compound 0.316 µM
[10] = second compound 0.1 µM, first compound 1 µM
[11] = second compound 0.1 µM, first compound 3.16 µM
[12] = second compound 0.1 µM, first compound 10 µM
[13] = second compound 0.316 µM, first compound 0.0316 µM
[14] = second compound 0.316 µM, first compound 0.1 µM
[15] = second compound 0.316 µM, first compound 0.316 µM
[16] = second compound 0.316 µM, first compound 1 µM
[17] = second compound 0.316 µM, first compound 3.16 µM
[18] = second compound 0.316 µM, first compound 10 µM
[19] = second compound 1 µM, first compound 0.0316 µM
[20] = second compound 1 µM, first compound 0.1 µM
[21] = second compound 1 µM, first compound 0.316 µM
[22] = second compound 1 µM, first compound 1 µM
[23] = second compound 1 µM, first compound 3.16 µM
[24] = second compound 1 µM, first compound 10 µM
[25] = second compound 3.16 µM, first compound 0.0316 µM
[26] = second compound 3.16 µM, first compound 0.1 µM
[27] = second compound 3.16 µM, first compound 0.316 µM
[28] = second compound 3.16 µM, first compound 1 µM
[29] = second compound 3.16 µM, first compound 3.16 µM
[30] = second compound 3.16 µM, first compound 10 µM
[31] = second compound 10 µM, first compound 0.0316 µM
[32] = second compound 10 µM, first compound 0.1 µM
[33] = second compound 10 µM, first compound 0.316 µM
[34] = second compound 10 µM, first compound 1 µM
[35] = second compound 10 µM, first compound 3.16 µM
[36] = second compound 10 µM, first compound 10 µM
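Further: spheroids exposed to compounds for seven days before readout.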
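Wherever viability, T/C is given: percent of DMSO vehicle control luminescence as 100% viability.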

## CC(=O)O[C@H]1C(=O)[C@@]2(C)[C@H]([C@H](OC(=O)c3ccccc3)[C@]3(O)C[C@H](OC(=O)[C@H](O)[C@@H](NC(=O)c4ccccc4)c4ccccc4)C(C)=C1C3(C)C)[C@]1(OC(C)=O)CO[C@@H]1C[C@@H]2O + CN1CCN(c2cc(C(=O)Nc3cc4cc(-c5cnn(C)c5)ccc4cn3)ccn2)CC1
Second compound 0.0316 µM
  IC50: < 31.6 nM
Second compound 0.1 µM
  IC50: < 31.6 nM
Second compound 0.316 µM
  IC50: < 31.6 nM
Second compound 1 µM
  IC50: < 31.6 nM
Second compound 3.16 µM
  IC50: < 31.6 nM
Second compound 10 µM
  IC50: < 31.6 nM
[1]
  viability, T/C: 27.4%
[2]
  viability, T/C: 22.2%
[3]
  viability, T/C: 31.2%
[4]
  viability, T/C: 31.4%
[5]
  viability, T/C: 36.9%
[6]
  viability, T/C: 43.8%
[7]
  viability, T/C: 28.6%
[8]
  viability, T/C: 32.8%
[9]
  viability, T/C: 35%
[10]
  viability, T/C: 38%
[11]
  viability, T/C: 40.7%
[12]
  viability, T/C: 40.6%
[13]
  viability, T/C: 2.61%
[14]
  viability, T/C: 6.66%
[15]
  viability, T/C: 2.59%
[16]
  viability, T/C: 4.5%
[17]
  viability, T/C: 5.51%
[18]
  viability, T/C: 6.7%
[19]
  viability, T/C: 1.8%
[20]
  viability, T/C: 2.26%
[21]
  viability, T/C: 3.26%
[22]
  viability, T/C: 4%
[23]
  viability, T/C: 1.87%
[24]
  viability, T/C: 2.01%
[25]
  viability, T/C: 7.44%
[26]
  viability, T/C: 3.02%
[27]
  viability, T/C: 3.51%
[28]
  viability, T/C: 2.58%
[29]
  viability, T/C: 5.48%
[30]
  viability, T/C: 4.46%
[31]
  viability, T/C: 1.55%
[32]
  viability, T/C: 1.61%
[33]
  viability, T/C: 1.94%
[34]
  viability, T/C: 1.68%
[35]
  viability, T/C: 1.56%
[36]
  viability, T/C: 1.39%

## CCc1c2c(nc3ccc(O)cc13)-c1cc3c(c(=O)n1C2)COC(=O)[C@]3(O)CC + CN1CCN(c2cc(C(=O)Nc3cc4cc(-c5cnn(C)c5)ccc4cn3)ccn2)CC1
Second compound 0.0316 µM
  IC50: 276 nM
Second compound 0.1 µM
  IC50: 12.9 nM
Second compound 0.316 µM
  IC50: < 3.16 nM
Second compound 1 µM
  IC50: < 3.16 nM
Second compound 3.16 µM
  IC50: < 3.16 nM
Second compound 10 µM
  IC50: < 3.16 nM
Second compound 0.0316 µM, first compound 0.00316 µM
  viability, T/C: 96.7%
Second compound 0.0316 µM, first compound 0.01 µM
  viability, T/C: 99%
[1]
  viability, T/C: 74.9%
[2]
  viability, T/C: 62%
[3]
  viability, T/C: 52.1%
[4]
  viability, T/C: 32.5%
Second compound 0.1 µM, first compound 0.00316 µM
  viability, T/C: 58.4%
Second compound 0.1 µM, first compound 0.01 µM
  viability, T/C: 53.1%
[7]
  viability, T/C: 38.7%
[8]
  viability, T/C: 38.1%
[9]
  viability, T/C: 25.4%
[10]
  viability, T/C: 8.95%
Second compound 0.316 µM, first compound 0.00316 µM
  viability, T/C: 3.53%
Second compound 0.316 µM, first compound 0.01 µM
  viability, T/C: 4.77%
[13]
  viability, T/C: 3.57%
[14]
  viability, T/C: 4.05%
[15]
  viability, T/C: 1.85%
[16]
  viability, T/C: 0.98%
Second compound 1 µM, first compound 0.00316 µM
  viability, T/C: 1.32%
Second compound 1 µM, first compound 0.01 µM
  viability, T/C: 1.1%
[19]
  viability, T/C: 1.61%
[20]
  viability, T/C: 1.38%
[21]
  viability, T/C: 2.57%
[22]
  viability, T/C: 2.01%
Second compound 3.16 µM, first compound 0.00316 µM
  viability, T/C: 4.99%
Second compound 3.16 µM, first compound 0.01 µM
  viability, T/C: 2.04%
[25]
  viability, T/C: 2.02%
[26]
  viability, T/C: 2.48%
[27]
  viability, T/C: 5.26%
[28]
  viability, T/C: 2.04%
Second compound 10 µM, first compound 0.00316 µM
  viability, T/C: 1.98%
Second compound 10 µM, first compound 0.01 µM
  viability, T/C: 1.03%
[31]
  viability, T/C: 0.86%
[32]
  viability, T/C: 2.28%
[33]
  viability, T/C: 0.94%
[34]
  viability, T/C: 0.92%

## COc1ccc([C@@H](O)c2cc(-c3ncnc4cc(N5CCOCC5)ccc34)c(F)cc2Cl)nn1 + CN1CCN(c2cc(C(=O)Nc3cc4cc(-c5cnn(C)c5)ccc4cn3)ccn2)CC1
Second compound 0.0316 µM
  IC50: > 10000 nM
Second compound 0.1 µM
  IC50: > 10000 nM
Second compound 0.316 µM
  IC50: < 31.6 nM
Second compound 1 µM
  IC50: < 31.6 nM
Second compound 3.16 µM
  IC50: < 31.6 nM
Second compound 10 µM
  IC50: < 31.6 nM
[1]
  viability, T/C: 95.2%
[2]
  viability, T/C: 107%
[3]
  viability, T/C: 115%
[4]
  viability, T/C: 99%
[5]
  viability, T/C: 75.7%
[6]
  viability, T/C: 66.6%
[7]
  viability, T/C: 60.8%
[8]
  viability, T/C: 69.8%
[9]
  viability, T/C: 54.1%
[10]
  viability, T/C: 73.5%
[11]
  viability, T/C: 66.2%
[12]
  viability, T/C: 48.8%
[13]
  viability, T/C: 5.56%
[14]
  viability, T/C: 4.19%
[15]
  viability, T/C: 4.12%
[16]
  viability, T/C: 4.66%
[17]
  viability, T/C: 5.44%
[18]
  viability, T/C: 3.88%
[19]
  viability, T/C: 1.55%
[20]
  viability, T/C: 3.72%
[21]
  viability, T/C: 3.44%
[22]
  viability, T/C: 2.14%
[23]
  viability, T/C: 2.19%
[24]
  viability, T/C: 1.68%
[25]
  viability, T/C: 5.54%
[26]
  viability, T/C: 3.34%
[27]
  viability, T/C: 3.99%
[28]
  viability, T/C: 3.31%
[29]
  viability, T/C: 3.4%
[30]
  viability, T/C: 2.14%
[31]
  viability, T/C: 2.64%
[32]
  viability, T/C: 1.93%
[33]
  viability, T/C: 2.01%
[34]
  viability, T/C: 1.95%
[35]
  viability, T/C: 1.9%
[36]
  viability, T/C: 1.68%

## COc1cccc2c1C(=O)c1c(O)c3c(c(O)c1C2=O)CC(O)(C(=O)CO)CC3OC1CC(N)C(O)C(C)O1 (stereo not given) + CN1CCN(c2cc(C(=O)Nc3cc4cc(-c5cnn(C)c5)ccc4cn3)ccn2)CC1
Second compound 0.0316 µM
  IC50: 180 nM
Second compound 0.1 µM
  IC50: 73.4 nM
Second compound 0.316 µM
  IC50: < 31.6 nM
Second compound 1 µM
  IC50: < 31.6 nM
Second compound 3.16 µM
  IC50: < 31.6 nM
Second compound 10 µM
  IC50: < 31.6 nM
[1]
  viability, T/C: 84.1%
[2]
  viability, T/C: 68%
[3]
  viability, T/C: 32.8%
[4]
  viability, T/C: 12.8%
[5]
  viability, T/C: 2.47%
[6]
  viability, T/C: 10.4%
[7]
  viability, T/C: 64.5%
[8]
  viability, T/C: 44.6%
[9]
  viability, T/C: 17.3%
[10]
  viability, T/C: 8.44%
[11]
  viability, T/C: 2.6%
[12]
  viability, T/C: 10.8%
[13]
  viability, T/C: 5.51%
[14]
  viability, T/C: 5.14%
[15]
  viability, T/C: 1.16%
[16]
  viability, T/C: 1.51%
[17]
  viability, T/C: 3.05%
[18]
  viability, T/C: 9.1%
[19]
  viability, T/C: 1.69%
[20]
  viability, T/C: 1.91%
[21]
  viability, T/C: 2.92%
[22]
  viability, T/C: 4.33%
[23]
  viability, T/C: 3.24%
[24]
  viability, T/C: 11%
[25]
  viability, T/C: 5.16%
[26]
  viability, T/C: 2.78%
[27]
  viability, T/C: 2.53%
[28]
  viability, T/C: 3.22%
[29]
  viability, T/C: 3.62%
[30]
  viability, T/C: 7.06%
[31]
  viability, T/C: 3.68%
[32]
  viability, T/C: 1.75%
[33]
  viability, T/C: 1.37%
[34]
  viability, T/C: 1.43%
[35]
  viability, T/C: 1.53%
[36]
  viability, T/C: 1.26%

## CCCS(=O)(=O)Nc1ccc(F)c(C(=O)c2c[nH]c3ncc(-c4ccc(Cl)cc4)cc23)c1F + CNC(=O)c1ccc(Nc2nc(OC3CCCC3)c3c(-c4ccc5nc(C)oc5c4)c[nH]c3n2)c(OC)c1
Second compound 0.0316 µM
  IC50: > 10000 nM
Second compound 0.1 µM
  IC50: > 10000 nM
Second compound 0.316 µM
  IC50: 9220 nM
Second compound 1 µM
  IC50: 7060 nM
Second compound 3.16 µM
  IC50: 241 nM
Second compound 10 µM
  IC50: < 31.6 nM
[1]
  viability, T/C: 87.8%
[2]
  viability, T/C: 94%
[3]
  viability, T/C: 96.5%
[4]
  viability, T/C: 101%
[5]
  viability, T/C: 105%
[6]
  viability, T/C: 66.2%
[7]
  viability, T/C: 102%
[8]
  viability, T/C: 101%
[9]
  viability, T/C: 107%
[10]
  viability, T/C: 108%
[11]
  viability, T/C: 114%
[12]
  viability, T/C: 56.2%
[13]
  viability, T/C: 78.2%
[14]
  viability, T/C: 93.2%
[15]
  viability, T/C: 96%
[16]
  viability, T/C: 118%
[17]
  viability, T/C: 126%
[18]
  viability, T/C: 46%
[19]
  viability, T/C: 64.7%
[20]
  viability, T/C: 80%
[21]
  viability, T/C: 84.1%
[22]
  viability, T/C: 85.7%
[23]
  viability, T/C: 85.8%
[24]
  viability, T/C: 36.9%
[25]
  viability, T/C: 53.1%
[26]
  viability, T/C: 52.6%
[27]
  viability, T/C: 49.6%
[28]
  viability, T/C: 36.1%
[29]
  viability, T/C: 28.1%
[30]
  viability, T/C: 24.7%
[31]
  viability, T/C: 39%
[32]
  viability, T/C: 40.2%
[33]
  viability, T/C: 45.1%
[34]
  viability, T/C: 35.5%
[35]
  viability, T/C: 33.5%
[36]
  viability, T/C: 24.3%
